According to PubChem BioAssay AID254 (DTP/NCI, 2004):
Where “and” joins values, the source holds several entries; their conditions need not be identical. Identical values can stand only once. Toxic doses and inconclusive results are not listed.

Tested on: L1210 leukemia iv in BDF1 mice, survival T/C
Test: NCI In Vivo Anticancer Drug Screen. Data for tumor model L1210 Leukemia (intravenous) in B6D2F1 (BDF1) mice
Conditions: higher = longer survival
Protocol: The antitumor activity of compounds was measured in mice bearing transplantable tumors. Survival or tumor size were measured and the results are expressed as the measurement made in the treated group (T) divided by the measurement made in the vehicle treated control group (C). The tumor model used in this assay is L1210 Leukemia (intravenous) in B6D2F1 (BDF1) mice

Structure (SMILES): COc1cccc2c1C(=O)c1c(O)c3c(c(O)c1C2=O)C[C@@](O)(C(C)=O)C[C@@H]3OC1CC(N)C(O)C(C)O1 (some centres undefined)
- T/C (endpoint: mean survival time, dose: 3.0 mg/kg/injection, schedule: Q04DX003 (iv), vehicle: water): 216 % of control
- T/C (endpoint: mean survival time, dose: 5.0 mg/kg/injection, schedule: Q01DX001 (iv), vehicle: saline): 105 % of control
- T/C (endpoint: mean survival time, dose: 5.0 mg/kg/injection, schedule: Q04DX003 (iv), vehicle: water): 121 % of control
- T/C (endpoint: mean survival time, dose: 10.0 mg/kg/injection, schedule: Q01DX001 (iv), vehicle: saline): 115 % of control
- T/C (endpoint: mean survival time, dose: 14.0 mg/kg/injection, schedule: Q04DX003 (iv), vehicle: water): 160 % of control
- T/C (endpoint: mean survival time, dose: 20.0 mg/kg/injection, schedule: Q01DX001 (iv), vehicle: saline): 150 % of control
- T/C (endpoint: mean survival time, dose: 23.0 mg/kg/injection, schedule: Q04DX003 (iv), vehicle: water): 84 % of control

Structure (SMILES): COc1cccc2c1C(=O)c1c(O)c3c(c(O)c1C2=O)C[C@@](O)(C(=O)CO)C[C@@H]3OC1CC(N)C(O)C(C)O1 (some centres undefined)
- T/C (endpoint: mean survival time, dose: 0.6 mg/kg/injection, schedule: Q01DX005 (iv), vehicle: clinical formulation): 100 % of control
- T/C (endpoint: mean survival time, dose: 0.7 mg/kg/injection, schedule: Q01DX009 (ip), vehicle: clinical formulation): 97 % of control
- T/C (endpoint: mean survival time, dose: 0.7 mg/kg/injection, schedule: Q01DX009 (sc), vehicle: clinical formulation): 100 % of control
- T/C (endpoint: mean survival time, dose: 0.75 mg/kg/injection, schedule: Q01DX005 (iv), vehicle: saline): 90 % of control
- T/C (endpoint: mean survival time, dose: 0.9 mg/kg/injection, schedule: Q01DX005 (iv), vehicle: clinical formulation): 102 % of control
- T/C (endpoint: mean survival time, dose: 1.1 mg/kg/injection, schedule: Q01DX009 (ip), vehicle: clinical formulation): 100 % of control
- T/C (endpoint: mean survival time, dose: 1.1 mg/kg/injection, schedule: Q01DX009 (sc), vehicle: clinical formulation): 100 % of control
- T/C (endpoint: mean survival time, dose: 1.4 mg/kg/injection, schedule: Q01DX005 (iv), vehicle: clinical formulation): 101 % of control
- T/C (endpoint: mean survival time, dose: 1.5 mg/kg/injection, schedule: Q01DX005 (iv), vehicle: saline): 101 % of control
- T/C (endpoint: mean survival time, dose: 1.7 mg/kg/injection, schedule: Q01DX009 (ip), vehicle: clinical formulation): 102 % of control
- T/C (endpoint: mean survival time, dose: 1.7 mg/kg/injection, schedule: Q01DX009 (sc), vehicle: clinical formulation): 105 % of control
- T/C (endpoint: mean survival time, dose: 2.4 mg/kg/injection, schedule: Q01DX005 (iv), vehicle: clinical formulation): 108 % of control
- T/C (endpoint: mean survival time, dose: 2.4 mg/kg/injection, schedule: Q01DX009 (ip), vehicle: clinical formulation): 105 % of control
- T/C (endpoint: mean survival time, dose: 2.4 mg/kg/injection, schedule: Q01DX009 (sc), vehicle: clinical formulation): 112 % of control
- T/C (endpoint: mean survival time, dose: 2.5 mg/kg/injection, schedule: Q01DX005 (iv), vehicle: saline): 196 % of control
- T/C (endpoint: mean survival time, dose: 2.8 mg/kg/injection, schedule: Q01DX005 (iv), vehicle: clinical formulation): 108 % of control and 117 % of control
- T/C (endpoint: mean survival time, dose: 3.0 mg/kg/injection, schedule: Q01DX005 (iv), vehicle: saline): 114 % of control
- T/C (endpoint: mean survival time, dose: 3.6 mg/kg/injection, schedule: Q01DX009 (ip), vehicle: clinical formulation): 110 % of control
- T/C (endpoint: mean survival time, dose: 3.6 mg/kg/injection, schedule: Q01DX009 (sc), vehicle: clinical formulation): 119 % of control
- T/C (endpoint: mean survival time, dose: 4.0 mg/kg/injection, schedule: Q01DX005 (iv), vehicle: saline): 86 % of control
- T/C (endpoint: mean survival time, dose: 4.2 mg/kg/injection, schedule: Q01DX005 (iv), vehicle: clinical formulation): 123 % of control
- T/C (endpoint: mean survival time, dose: 6.3 mg/kg/injection, schedule: Q01DX005 (iv), vehicle: clinical formulation): 124 % of control
- T/C (endpoint: mean survival time, dose: 7.0 mg/kg/injection, schedule: Q01DX005 (iv), vehicle: saline): 87 % of control
- T/C (endpoint: mean survival time, dose: 9.4 mg/kg/injection, schedule: Q01DX005 (iv), vehicle: clinical formulation): 115 % of control
- T/C (endpoint: mean survival time, dose: 14.1 mg/kg/injection, schedule: Q01DX005 (iv), vehicle: clinical formulation): 113 % of control

Structure (SMILES): Nc1ccn(C2OC(COC(=O)C34CC5CC(CC(C5)C3)C4)C(O)C2O)c(=O)n1 (centres undefined)
- T/C (endpoint: mean survival time, dose: 100.0 mg/kg/injection, schedule: Q01DX001 (ip), vehicle: other): 150 % of control and 178 % of control
- T/C (endpoint: mean survival time, dose: 200.0 mg/kg/injection, schedule: Q01DX001 (ip), vehicle: other): 189 % of control and 215 % of control
- T/C (endpoint: mean survival time, dose: 400.0 mg/kg/injection, schedule: Q01DX001 (ip), vehicle: other): 464 % of control and 281 % of control

Structure (SMILES): O=NN(CCCl)C(=O)NCCCl
- T/C (endpoint: mean survival time, dose: 7.0 mg/kg/injection, schedule: Q01DX001 (ip), vehicle: other): 152 % of control and 175 % of control
- T/C (endpoint: mean survival time, dose: 10.0 mg/kg/injection, schedule: Q01DX001 (ip), vehicle: other): 197 % of control
- T/C (endpoint: mean survival time, dose: 10.0 mg/kg/injection, schedule: Q01DX001 (ip), vehicle: saline + alcohol): 347 % of control (2×) and 204 % of control
- T/C (endpoint: mean survival time, dose: 10.0 mg/kg/injection, schedule: Q04DX004 (ip), vehicle: other): 256 % of control
- T/C (endpoint: mean survival time, dose: 15.0 mg/kg/injection, schedule: Q04DX004 (ip), vehicle: other): 719 % of control
- T/C (endpoint: mean survival time, dose: 18.0 mg/kg/injection, schedule: Q01DX001 (ip), vehicle: saline + alcohol): 263 % of control
- T/C (endpoint: mean survival time, dose: 20.0 mg/kg/injection, schedule: Q04DX004 (ip), vehicle: other): 629 % of control
- T/C (endpoint: mean survival time, dose: 27.0 mg/kg/injection, schedule: Q01DX001 (ip), vehicle: other): 335 % of control and 283 % of control and 316 % of control
- T/C (endpoint: mean survival time, dose: 27.0 mg/kg/injection, schedule: Q01DX001 (ip), vehicle: saline + alcohol): 358 % of control
- T/C (endpoint: mean survival time, dose: 27.0 mg/kg/injection, schedule: Q01DX001 (oral), vehicle: other): 481 % of control and 523 % of control and 549 % of control
- T/C (endpoint: mean survival time, dose: 30.0 mg/kg/injection, schedule: Q01DX001 (ip), vehicle: other): 385 % of control
- T/C (endpoint: mean survival time, dose: 30.0 mg/kg/injection, schedule: Q04DX004 (ip), vehicle: other): 621 % of control
- T/C (endpoint: mean survival time, dose: 31.0 mg/kg/injection, schedule: Q01DX001 (ip), vehicle: other): 342 % of control and 248 % of control
- T/C (endpoint: mean survival time, dose: 39.0 mg/kg/injection, schedule: Q01DX001 (ip), vehicle: other): 373 % of control and 400 % of control and 473 % of control
- T/C (endpoint: mean survival time, dose: 40.0 mg/kg/injection, schedule: Q01DX001 (oral), vehicle: other): 553 % of control and 633 % of control and 678 % of control
- T/C (endpoint: mean survival time, dose: 49.0 mg/kg/injection, schedule: Q01DX001 (ip), vehicle: other): 466 % of control and 478 % of control and 532 % of control
- T/C (endpoint: mean survival time, dose: 60.0 mg/kg/injection, schedule: Q01DX001 (oral), vehicle: other): 434 % of control and 471 % of control and 625 % of control
- T/C (endpoint: mean survival time, dose: 62.0 mg/kg/injection, schedule: Q01DX001 (ip), vehicle: other): 120 % of control and 297 % of control
- T/C (endpoint: median survival time, dose: 18.0 mg/kg/injection, schedule: Q## X001 (ip), vehicle: saline + alcohol): 188 % of control
- T/C (endpoint: median survival time, dose: 30.0 mg/kg/injection, schedule: Q## X001 (ip), vehicle: saline + alcohol): 241 % of control
- T/C (endpoint: median survival time, dose: 48.0 mg/kg/injection, schedule: Q## X001 (ip), vehicle: saline + alcohol): 297 % of control

Structure (SMILES): O=NN(CCCl)C(=O)NC1CSCSC1
- T/C (endpoint: mean survival time, dose: 2.0 mg/kg/injection, schedule: Q01DX001 (ip), vehicle: other): 106 % of control and 102 % of control
- T/C (endpoint: mean survival time, dose: 4.0 mg/kg/injection, schedule: Q01DX001 (ip), vehicle: other): 109 % of control
- T/C (endpoint: mean survival time, dose: 4.5 mg/kg/injection, schedule: Q04DX004 (ip), vehicle: saline with Tween-80): 293 % of control
- T/C (endpoint: mean survival time, dose: 7.0 mg/kg/injection, schedule: Q04DX004 (ip), vehicle: saline with Tween-80): 443 % of control
- T/C (endpoint: mean survival time, dose: 8.0 mg/kg/injection, schedule: Q01DX001 (ip), vehicle: other): 156 % of control and 161 % of control
- T/C (endpoint: mean survival time, dose: 11.0 mg/kg/injection, schedule: Q04DX004 (ip), vehicle: saline with Tween-80): 735 % of control
- T/C (endpoint: mean survival time, dose: 16.5 mg/kg/injection, schedule: Q01DX001 (ip), vehicle: other): 393 % of control and 311 % of control
- T/C (endpoint: mean survival time, dose: 16.5 mg/kg/injection, schedule: Q04DX004 (ip), vehicle: saline with Tween-80): 1060 % of control
- T/C (endpoint: mean survival time, dose: 33.0 mg/kg/injection, schedule: Q01DX001 (ip), vehicle: other): 490 % of control and 588 % of control

Structure (SMILES): CC[C@]1(O)C[C@H]2CN(CCc3c([nH]c4ccccc34)[C@@](C(=O)OC)(c3cc4c(cc3OC)N(C=O)[C@H]3[C@@](O)(C(=O)OC)[C@H](OC(C)=O)[C@]5(CC)C=CCN6CC[C@]43[C@@H]65)C2)C1
- T/C (endpoint: mean survival time, dose: 0.32 mg/kg/injection, schedule: Q01DX001 (ip), vehicle: saline): 112 % of control
- T/C (endpoint: mean survival time, dose: 0.75 mg/kg/injection, schedule: Q01DX001 (ip), vehicle: saline): 108 % of control
- T/C (endpoint: mean survival time, dose: 1.5 mg/kg/injection, schedule: Q01DX001 (ip), vehicle: saline): 114 % of control
- T/C (endpoint: mean survival time, dose: 1.6 mg/kg/injection, schedule: Q01DX001 (ip), vehicle: saline): 109 % of control
- T/C (endpoint: mean survival time, dose: 2.25 mg/kg/injection, schedule: Q01DX001 (ip), vehicle: saline): 119 % of control

Structure (SMILES): O=NN(CCCl)C(=O)N[C@H]1CCCC[C@H]1Cl
- T/C (endpoint: mean survival time, dose: 25.0 mg/kg/injection, schedule: Q01DX001 (ip), vehicle: carboxymethylcellulose (CMC)): 190 % of control and 262 % of control
- T/C (endpoint: mean survival time, dose: 51.0 mg/kg/injection, schedule: Q01DX001 (ip), vehicle: carboxymethylcellulose (CMC)): 427 % of control and 435 % of control
- T/C (endpoint: mean survival time, dose: 101.0 mg/kg/injection, schedule: Q01DX001 (ip), vehicle: carboxymethylcellulose (CMC)): 588 % of control and 767 % of control
- T/C (endpoint: mean survival time, dose: 203.0 mg/kg/injection, schedule: Q01DX001 (ip), vehicle: carboxymethylcellulose (CMC)): 111 % of control and 202 % of control
